Measured values as given in ChEMBL document CHEMBL4145445, “Design, synthesis and biological assessment of new thiazolylhydrazine derivatives as selective and reversible hMAO-A inhibitors” (Eur J Med Chem, 2018).

Key:
[1] = target: T1, Amine oxidase [flavin-containing] B (Homo sapiens, UniProt P27338); assay: Inhibition of human MAO-B at 10^-4 to 10^-3 M using tyramine hydrochloride as substrate after 30 mins by Amplex Red reagent based horseradish peroxidase enzyme-coupled fluorescence assay relative to control; conditions: 0.5 h
T1 sequence (P27338 whole entry): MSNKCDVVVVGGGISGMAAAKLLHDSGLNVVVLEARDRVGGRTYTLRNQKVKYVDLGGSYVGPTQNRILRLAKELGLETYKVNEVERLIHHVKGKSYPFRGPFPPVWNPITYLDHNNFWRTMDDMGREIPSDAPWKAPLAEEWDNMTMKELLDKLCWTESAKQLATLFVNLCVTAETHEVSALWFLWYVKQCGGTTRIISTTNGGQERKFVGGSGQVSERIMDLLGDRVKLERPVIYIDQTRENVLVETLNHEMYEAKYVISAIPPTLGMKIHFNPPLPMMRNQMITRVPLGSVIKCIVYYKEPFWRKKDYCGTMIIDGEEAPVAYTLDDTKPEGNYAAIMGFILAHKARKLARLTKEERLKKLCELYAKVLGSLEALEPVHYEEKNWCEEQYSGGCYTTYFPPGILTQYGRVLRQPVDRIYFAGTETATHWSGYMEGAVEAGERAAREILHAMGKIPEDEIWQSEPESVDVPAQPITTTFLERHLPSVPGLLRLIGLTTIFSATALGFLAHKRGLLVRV

[2] = target: T2, Amine oxidase [flavin-containing] A (Homo sapiens, UniProt P21397); assay: Inhibition of human MAO-A at 10^-4 to 10^-3 M using tyramine hydrochloride as substrate after 30 mins by Amplex Red reagent based horseradish peroxidase enzyme-coupled fluorescence assay relative to control; conditions: 0.5 h
T2 sequence (P21397 whole entry): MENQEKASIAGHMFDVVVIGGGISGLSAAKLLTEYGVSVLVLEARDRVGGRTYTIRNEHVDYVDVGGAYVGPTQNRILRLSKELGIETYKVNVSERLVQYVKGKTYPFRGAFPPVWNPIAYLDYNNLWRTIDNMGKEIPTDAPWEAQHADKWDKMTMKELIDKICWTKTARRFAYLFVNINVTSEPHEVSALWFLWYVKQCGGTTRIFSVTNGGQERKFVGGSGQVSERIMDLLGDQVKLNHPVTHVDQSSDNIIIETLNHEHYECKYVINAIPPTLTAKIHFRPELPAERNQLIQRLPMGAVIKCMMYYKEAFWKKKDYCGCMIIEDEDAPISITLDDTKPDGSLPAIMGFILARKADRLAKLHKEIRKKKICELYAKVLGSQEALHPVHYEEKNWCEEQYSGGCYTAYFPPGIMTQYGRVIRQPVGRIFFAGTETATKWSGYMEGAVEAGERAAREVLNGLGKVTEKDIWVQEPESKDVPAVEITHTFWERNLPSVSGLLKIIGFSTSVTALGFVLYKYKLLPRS

[3] = target: T2, Amine oxidase [flavin-containing] A; assay: Inhibition of human MAO-A using tyramine hydrochloride as substrate after 30 mins by Amplex Red reagent based horseradish peroxidase enzyme-coupled fluorescence assay
[4] = target: T1, Amine oxidase [flavin-containing] B; assay: Inhibition of human MAO-B using tyramine hydrochloride as substrate after 30 mins by Amplex Red reagent based horseradish peroxidase enzyme-coupled fluorescence assay
Homo sapiens = species: Homo sapiens; assay: Selectivity index, ratio of IC50 for human MAO-B to IC50 for human MAO-A
[5] = target: T2, Amine oxidase [flavin-containing] A; assay: Reversible-competitive inhibition of human MAO-A using varying levels of tyramine as substrate after 30 mins by Lineweaver-Burk plot
NIH3T3 = assay: Cytotoxicity against mouse NIH/3T3 cells by MTT assay; format: cell-based
Salmonella typhimurium [6] = assay: Genotoxicity in Salmonella typhimurium TA98 assessed as increase in revertant colonies at 0.156 mg/ml in presence of Sprague-Dawley rat liver S9 fraction by Ames test relative to basal level; format: toxicity, organism-based; conditions: salmonella enterica subsp. enterica serovar typhimurium
Salmonella typhimurium [7] = assay: Genotoxicity in Salmonella typhimurium TA98 assessed as increase in revertant colonies at 0.3125 mg/ml in presence of Sprague-Dawley rat liver S9 fraction by Ames test relative to basal level; format: toxicity, organism-based; conditions: salmonella enterica subsp. enterica serovar typhimurium
Salmonella typhimurium [8] = assay: Genotoxicity in Salmonella typhimurium TA98 assessed as increase in revertant colonies at 0.625 mg/ml in presence of Sprague-Dawley rat liver S9 fraction by Ames test relative to basal level; format: toxicity, organism-based; conditions: salmonella enterica subsp. enterica serovar typhimurium
Salmonella typhimurium [9] = assay: Genotoxicity in Salmonella typhimurium TA98 assessed as increase in revertant colonies at 1.25 mg/ml in presence of Sprague-Dawley rat liver S9 fraction by Ames test relative to basal level; format: toxicity, organism-based; conditions: salmonella enterica subsp. enterica serovar typhimurium
Salmonella typhimurium [10] = assay: Genotoxicity in Salmonella typhimurium TA98 assessed as increase in revertant colonies at 2.5 mg/ml in presence of Sprague-Dawley rat liver S9 fraction by Ames test relative to basal level; format: toxicity, organism-based; conditions: salmonella enterica subsp. enterica serovar typhimurium
Salmonella typhimurium [11] = assay: Genotoxicity in Salmonella typhimurium TA98 assessed as increase in revertant colonies at 5 mg/ml in presence of Sprague-Dawley rat liver S9 fraction by Ames test relative to basal level; format: toxicity, organism-based; conditions: salmonella enterica subsp. enterica serovar typhimurium
Salmonella typhimurium [12] = assay: Genotoxicity in Salmonella typhimurium TA98 assessed as increase in revertant colonies at 0.156 mg/ml in absence of Sprague-Dawley rat liver S9 fraction by Ames test relative to basal level; format: toxicity, organism-based; conditions: salmonella enterica subsp. enterica serovar typhimurium
Salmonella typhimurium [13] = assay: Genotoxicity in Salmonella typhimurium TA98 assessed as increase in revertant colonies at 0.3125 mg/ml in absence of Sprague-Dawley rat liver S9 fraction by Ames test relative to basal level; format: toxicity, organism-based; conditions: salmonella enterica subsp. enterica serovar typhimurium
Salmonella typhimurium [14] = assay: Genotoxicity in Salmonella typhimurium TA98 assessed as increase in revertant colonies at 0.625 mg/ml in absence of Sprague-Dawley rat liver S9 fraction by Ames test relative to basal level; format: toxicity, organism-based; conditions: salmonella enterica subsp. enterica serovar typhimurium
Salmonella typhimurium [15] = assay: Genotoxicity in Salmonella typhimurium TA98 assessed as increase in revertant colonies at 1.25 mg/ml in absence of Sprague-Dawley rat liver S9 fraction by Ames test relative to basal level; format: toxicity, organism-based; conditions: salmonella enterica subsp. enterica serovar typhimurium
Salmonella typhimurium [16] = assay: Genotoxicity in Salmonella typhimurium TA98 assessed as increase in revertant colonies at 2.5 mg/ml in absence of Sprague-Dawley rat liver S9 fraction by Ames test relative to basal level; format: toxicity, organism-based; conditions: salmonella enterica subsp. enterica serovar typhimurium
Salmonella typhimurium [17] = assay: Genotoxicity in Salmonella typhimurium TA98 assessed as increase in revertant colonies at 5 mg/ml in absence of Sprague-Dawley rat liver S9 fraction by Ames test relative to basal level; format: toxicity, organism-based; conditions: salmonella enterica subsp. enterica serovar typhimurium
Salmonella typhimurium [18] = assay: Genotoxicity in Salmonella typhimurium TA100 assessed as increase in revertant colonies at 0.156 mg/ml in presence of Sprague-Dawley rat liver S9 fraction by Ames test relative to basal level; format: toxicity, organism-based; conditions: salmonella enterica subsp. enterica serovar typhimurium
Salmonella typhimurium [19] = assay: Genotoxicity in Salmonella typhimurium TA100 assessed as increase in revertant colonies at 0.3125 mg/ml in presence of Sprague-Dawley rat liver S9 fraction by Ames test relative to basal level; format: toxicity, organism-based; conditions: salmonella enterica subsp. enterica serovar typhimurium
Salmonella typhimurium [20] = assay: Genotoxicity in Salmonella typhimurium TA100 assessed as increase in revertant colonies at 0.625 mg/ml in presence of Sprague-Dawley rat liver S9 fraction by Ames test relative to basal level; format: toxicity, organism-based; conditions: salmonella enterica subsp. enterica serovar typhimurium
Salmonella typhimurium [21] = assay: Genotoxicity in Salmonella typhimurium TA100 assessed as increase in revertant colonies at 1.25 mg/ml in presence of Sprague-Dawley rat liver S9 fraction by Ames test relative to basal level; format: toxicity, organism-based; conditions: salmonella enterica subsp. enterica serovar typhimurium
Salmonella typhimurium [22] = assay: Genotoxicity in Salmonella typhimurium TA100 assessed as increase in revertant colonies at 2.5 mg/ml in presence of Sprague-Dawley rat liver S9 fraction by Ames test relative to basal level; format: toxicity, organism-based; conditions: salmonella enterica subsp. enterica serovar typhimurium
Salmonella typhimurium [23] = assay: Genotoxicity in Salmonella typhimurium TA100 assessed as increase in revertant colonies at 5 mg/ml in presence of Sprague-Dawley rat liver S9 fraction by Ames test relative to basal level; format: toxicity, organism-based; conditions: salmonella enterica subsp. enterica serovar typhimurium
Salmonella typhimurium [24] = assay: Genotoxicity in Salmonella typhimurium TA100 assessed as increase in revertant colonies at 0.156 mg/ml in absence of Sprague-Dawley rat liver S9 fraction by Ames test relative to basal level; format: toxicity, organism-based; conditions: salmonella enterica subsp. enterica serovar typhimurium
Salmonella typhimurium [25] = assay: Genotoxicity in Salmonella typhimurium TA100 assessed as increase in revertant colonies at 0.3125 mg/ml in absence of Sprague-Dawley rat liver S9 fraction by Ames test relative to basal level; format: toxicity, organism-based; conditions: salmonella enterica subsp. enterica serovar typhimurium
Salmonella typhimurium [26] = assay: Genotoxicity in Salmonella typhimurium TA100 assessed as increase in revertant colonies at 0.625 mg/ml in absence of Sprague-Dawley rat liver S9 fraction by Ames test relative to basal level; format: toxicity, organism-based; conditions: salmonella enterica subsp. enterica serovar typhimurium
Salmonella typhimurium [27] = assay: Genotoxicity in Salmonella typhimurium TA100 assessed as increase in revertant colonies at 1.25 mg/ml in absence of Sprague-Dawley rat liver S9 fraction by Ames test relative to basal level; format: toxicity, organism-based; conditions: salmonella enterica subsp. enterica serovar typhimurium
Salmonella typhimurium [28] = assay: Genotoxicity in Salmonella typhimurium TA100 assessed as increase in revertant colonies at 2.5 mg/ml in absence of Sprague-Dawley rat liver S9 fraction by Ames test relative to basal level; format: toxicity, organism-based; conditions: salmonella enterica subsp. enterica serovar typhimurium
Salmonella typhimurium [29] = assay: Genotoxicity in Salmonella typhimurium TA100 assessed as increase in revertant colonies at 5 mg/ml in absence of Sprague-Dawley rat liver S9 fraction by Ames test relative to basal level; format: toxicity, organism-based; conditions: salmonella enterica subsp. enterica serovar typhimurium

SMILES | inhibition (INH) [1] [%] | inhibition (INH) [2] [%] | IC50 [3] [µM] | IC50 [4] [µM] | Ratio IC50 (Homo sapiens) | Ki [5] [µM] | IC50 (NIH3T3) [µM] | fold change (FC) (Salmonella typhimurium [6]) | fold change (FC) (Salmonella typhimurium [7]) | fold change (FC) (Salmonella typhimurium [8]) | fold change (FC) (Salmonella typhimurium [9]) | fold change (FC) (Salmonella typhimurium [10]) | fold change (FC) (Salmonella typhimurium [11]) | fold change (FC) (Salmonella typhimurium [12]) | fold change (FC) (Salmonella typhimurium [13]) | fold change (FC) (Salmonella typhimurium [14]) | fold change (FC) (Salmonella typhimurium [15]) | fold change (FC) (Salmonella typhimurium [16]) | fold change (FC) (Salmonella typhimurium [17]) | fold change (FC) (Salmonella typhimurium [18]) | also measured
Fc1ccc(-c2csc(N/N=C/c3ccc(N4CCOCC4)cc3)n2)cc1 | > 50 | > 50 | 0.012 | 14.6 | 1210 | 0.0066 | > 1000 | 4.38 | 6.07 | 6.97 | 7.86 | 7.95 | 5.81 | 1.66 | 2.28 | 1.59 | 2 | 1.45 | 1.66 | 1.07 | fold change (FC) (Salmonella typhimurium [19]): 1.01; fold change (FC) (Salmonella typhimurium [20]): 1.12; fold change (FC) (Salmonella typhimurium [21]): 0.96; fold change (FC) (Salmonella typhimurium [22]): 0.96; fold change (FC) (Salmonella typhimurium [23]): 1.28; fold change (FC) (Salmonella typhimurium [24]): 1.11; fold change (FC) (Salmonella typhimurium [25]): 0.56; fold change (FC) (Salmonella typhimurium [26]): 1.11; fold change (FC) (Salmonella typhimurium [27]): 0.72; fold change (FC) (Salmonella typhimurium [28]): 0.83; fold change (FC) (Salmonella typhimurium [29]): 1.17
Fc1ccc(-c2csc(N/N=C/c3ccc(N4CCOCC4)cc3)n2)c(F)c1 | > 50 | > 50 | 0.011 | 17.6 | 1600 | 0.0044 | > 1000 | 1.34 | 1.07 | 1.34 | 2.5 | 0.45 | 0.36 | 0.5 | 0.59 | 0.5 | 0.5 | 0.3 | 0.64 | 1.08 | fold change (FC) (Salmonella typhimurium [19]): 1.4; fold change (FC) (Salmonella typhimurium [20]): 1.4; fold change (FC) (Salmonella typhimurium [21]): 1.59; fold change (FC) (Salmonella typhimurium [22]): 1.14; fold change (FC) (Salmonella typhimurium [23]): 1.08; fold change (FC) (Salmonella typhimurium [24]): 0.61; fold change (FC) (Salmonella typhimurium [25]): 1; fold change (FC) (Salmonella typhimurium [26]): 0.61; fold change (FC) (Salmonella typhimurium [27]): 0.45; fold change (FC) (Salmonella typhimurium [28]): 0.22; fold change (FC) (Salmonella typhimurium [29]): 0.33
